In patent publication US20090099136A1 (PHARMASSET, INC., priority 2007, published 2009):
Values joined by “and” are separate entries in the source; they are usually repeats but may differ in a detail not shown here. Identical values can stand only once.

Tests used:
[1] = tested on: P4 CCR5-luc cells
[2] = tested on: NL43 wild type virus; assay type: cell-based, HIV; settings: read-out: EC50 (P4) (WT)

Structure (SMILES) | Toxicity (Luciferase, 6d) [1] | EC50 [2]
CCCCCOC(=O)C(C)NP(=O)(OCC1OCC(n2cc(C)c(=O)[nH]c2=O)O1)Oc1ccccc1 (mixture of isomers) [Example 17] | >100 | 360 nM
CCCCCCOC(=O)C(C)NP(=O)(OCC1OCC(n2cc(C)c(=O)[nH]c2=O)O1)Oc1ccccc1 (mixture of isomers) [Example 18] |  | 740 nM and 410 nM
Cc1cn(C2COC(COP(=O)(NC(C)C(=O)OCc3ccc(F)cc3)Oc3ccccc3)O2)c(=O)[nH]c1=O (mixture of isomers) [Example 19] | >100 | 
CCOC(=O)C(C)NP(=O)(OCC1OCC(n2cc(C)c(=O)[nH]c2=O)O1)Oc1ccc(Cl)cc1 (mixture of isomers) [Example 20] | >100 | 270 nM
Cc1cn(C2COC(COP(=O)(NC(C)C(=O)OCc3ccccc3)Oc3ccccc3Cl)O2)c(=O)[nH]c1=O (mixture of isomers) [Example 25] | >100 | 260 nM
CCCCOC(=O)C(C)NP(=O)(OCC1OCC(n2cc(C)c(=O)[nH]c2=O)O1)Oc1ccc(Br)cc1 (mixture of isomers) [Example 28] | >100 | 1340 nM
COC(=O)C(CC(C)C)NP(=O)(OCC1OCC(n2cc(C)c(=O)[nH]c2=O)O1)Oc1ccccc1 (mixture of isomers) [Example 52] | >100 | 960 nM
Cc1cn(C2COC(COP(=O)(NC(C)C(=O)OCc3ccccc3)Oc3ccc(F)cc3)O2)c(=O)[nH]c1=O (mixture of isomers) [Example 67] | >100 | 1110 nM
Cc1cn(C2COC(COP(=O)(NC(C)C(=O)OC3CCCCC3)Oc3ccccc3)O2)c(=O)[nH]c1=O (mixture of isomers) [Example 72] | >100 | 2120 nM
Cc1cn(C2COC(COP(=O)(NC(C)C(=O)OC3CCCC3)Oc3ccccc3)O2)c(=O)[nH]c1=O (mixture of isomers) [Example 73] | >100 | 1030 nM
Cc1cn(C2COC(COP(=O)(NC(C)C(=O)OC3CCC3)Oc3ccc(F)cc3)O2)c(=O)[nH]c1=O (mixture of isomers) [Example 86] | >100 | 500 nM
Cc1cn(C2COC(COP(=O)(NC(C)C(=O)OC3CCC3)Oc3ccccc3)O2)c(=O)[nH]c1=O (mixture of isomers) [Example 95] | >100 | 450 nM
Cc1cn(C2COC(COP(=O)(NC(C)C(=O)OCC3CC3)Oc3ccccc3)O2)c(=O)[nH]c1=O (mixture of isomers) [Example 96] | >100 | 330 nM
Cc1cn(C2COC(COP(=O)(NC(C)C(=O)OCC3CCC3)Oc3ccccc3)O2)c(=O)[nH]c1=O (mixture of isomers) [Example 109] | >100 | 710 nM
Cc1cn(C2COC(COP(=O)(NC(CC(C)C)C(=O)OCC3CC3)Oc3ccccc3)O2)c(=O)[nH]c1=O (mixture of isomers) [Example 116] | >100 | 570 nM
Cc1cn(C2COC(COP(=O)(NC(C)C(=O)OCc3ccccc3)Oc3ccccc3)O2)c(=O)[nH]c1=O (mixture of isomers) [Example 119] | >100 | 1700 nM
